Data from US8247211B2, “Glycopeptide antibiotics” (American Cyanamid Company, priority 2001, dated 2012).

Experiments:
Assay in all cases: In vitro antibacterial evaluation: minimum inhibitory concentration (MIC), broth dilution method
Assay type in all cases: cell-based
Streptococcus sp. = test system: Streptococcus sp.
Description: (§1) The minimum inhibitory concentration (MIC), the lowest concentration of the antibiotic which inhibits growth of the test organism, is determined by the broth dilution method using Muller-Hinton II […] (Baltimore Biological Laboratories) following the recommendations of the National Committee for Clinical Laboratory Standards [Methods for dilution antimicrobial susceptibility tests for bacteria that grow aerobically, approved standard M7-A2, National Committee for Clinical Laboratory Standards, Villanova, Pa].
(§2) An inoculum level of 5×10^5 CFU/mL, and a range of antibiotic concentrations (64-0.06 μg/mL) is used. […] The test organisms include a spectrum of Gram-positive bacteria comprised of Staphylococcus sp., Streptococcus sp. and Enterococcus sp. These organisms include recent clinical isolates that are resistant to methicillin, penicillin and/or vancomycin.

Enterococcus sp. = test system: Enterococcus sp.
Description: as §1, §2

Staphylococcus sp. = conditions: 18 hours at 35° C.
Description: as §1, §2

Escherichia coli = test system: Escherichia coli
Description: as §1, §2

[1] = Streptococcus agalactiae (GC 4564), 18 hours at 35° C.
[2] = Streptococcus pneumoniae (GC 4565), 18 hours at 35° C.
[3] = broth dilution, inoculum 5×10^5 CFU/mL, 18 hours at 35° C.
[4] = Enterococcus avium (GC 4558), 18 hours at 35° C.
[5] = Enterococcus faecalis (ATCC 29212), 18 hours at 35° C.
[6] = Enterococcus faecalis (GC 2242), 18 hours at 35° C.
[7] = Enterococcus faecalis (GC 4552), 18 hours at 35° C.
[8] = Enterococcus faecalis (GC 4553), 18 hours at 35° C.
[9] = Enterococcus faecalis (GC 4554), 18 hours at 35° C.
[10] = Enterococcus faecium (GC 2243), 18 hours at 35° C.
[11] = Enterococcus faecium (GC 4556), 18 hours at 35° C.
[12] = Enterococcus faecium (GC 4557), 18 hours at 35° C.
[13] = Staphylococcus aureus (ATCC 29213)
[14] = Staphylococcus aureus (GC 1131)
[15] = Staphylococcus aureus (GC 4541)
[16] = Staphylococcus aureus (GC 4542)
[17] = Staphylococcus aureus (GC 4544)
[18] = Staphylococcus aureus (GC 4545)
[19] = Staphylococcus aureus-SMITH (GC 4543)
[20] = Escherichia coli (ATCC 25922), 18 hours at 35° C.

CC(c1ccccc1)C1NC(=O)CNC(=O)C(CO)NC(=O)C(C(O)C2CNC(=N)N2C2OC(CO)C(O)C(O)C2O)NC(=O)C(C(O)C2CNC(=N)N2)NC(=O)C(Cc2ccc(OC3OC(CO)C(OC4OC(COCc5cccs5)C(O)C(O)C4O)C(O)C3O)cc2)NC1=O (stereo not drawn) [Example 244, Cyclo[glycyl-β-methylphenylalanyl-O-[4-O-[6-O-(2-thienylmethyl)hexopyranosyl]hexopyranosyl]tyrosyl-3-(2-iminoimidazolidin-4-yl)seryl-3-(3-hexopyranosyl-2-iminoimidazolidin-4-yl)serylseryl]]
2 µg/mL: MIC Streptococcus pyogenes (GC 4563) (Streptococcus sp.; Streptococcus pyogenes (GC 4563), 18 hours at 35° C.) | MIC Streptococcus pyogenes (GC 4563) (Streptococcus sp.; [3]) | MIC Coagulase Negative Staphylococcus (GC 4548) (Staphylococcus sp.) | MIC Coagulase Negative Staphylococcus (GC 4549) (Staphylococcus sp.) | MIC Coagulase Negative Staphylococcus (GC 6257) (Staphylococcus sp.; Coagulase Negative Staphylococcus (GC 6257)) | MIC Escherichia coli (GC 4560) (Escherichia coli; Escherichia coli (GC 4560), 18 hours at 35° C.)
16 µg/mL: MIC Staphylococcus aureus (GC 3053) (Staphylococcus sp.; Staphylococcus aureus (GC 3053))
8 µg/mL: MIC Staphylococcus aureus (ATCC 29213) (Staphylococcus sp.; [13]) | MIC Staphylococcus aureus (GC 1131) (Staphylococcus sp.; [14]) | MIC Staphylococcus aureus (GC 3051) (Staphylococcus sp.; Staphylococcus aureus (GC 3051)) | MIC Staphylococcus aureus (GC 4541) (Staphylococcus sp.; [15]) | MIC Staphylococcus aureus (GC 4544) (Staphylococcus sp.; [17]) | MIC Staphylococcus aureus (GC 4545) (Staphylococcus sp.; [18])
1 µg/mL: MIC Streptococcus pneumoniae (ATCC 6301) (Streptococcus sp.; Streptococcus pneumoniae (ATCC 6301), 18 hours at 35° C.) | MIC Streptococcus pneumoniae (GC 4565) (Streptococcus sp.; [2]) | MIC Streptococcus pneumoniae (ATCC 6301) (Streptococcus sp.; [3]) | MIC Streptococcus pneumoniae (GC 4565) (Streptococcus sp.; [3]) | MIC Staphylococcus aureus (GC 4542) (Staphylococcus sp.; [16])
>64 µg/mL: MIC Escherichia coli (ATCC 25922) (Escherichia coli; [20])
4 µg/mL: MIC Streptococcus agalactiae (GC 4564) (Streptococcus sp.; [1]) | MIC Streptococcus agalactiae (GC 4564) (Streptococcus sp.; [3]) | MIC Enterococcus faecium (GC 4557) (Enterococcus sp.; [12]) | MIC Coagulase Negative Staphylococcus (GC 4547) (Staphylococcus sp.) | MIC Coagulase Negative Staphylococcus (GC 4551) (Staphylococcus sp.) | MIC Staphylococcus aureus-SMITH (GC 4543) (Staphylococcus sp.; [19]) | MIC Staphylococcus haemolyticus (GC 4546) (Staphylococcus sp.)
32 µg/mL: MIC Enterococcus avium (GC 4558) (Enterococcus sp.; [4]) | MIC Enterococcus faecalis (ATCC 29212) (Enterococcus sp.; [5]) | MIC Enterococcus faecalis (GC 2242) (Enterococcus sp.; [6]) | MIC Enterococcus faecalis (GC 2691) (Enterococcus sp.; Enterococcus faecalis (GC 2691), 18 hours at 35° C.) | MIC Enterococcus faecalis (GC 4552) (Enterococcus sp.; [7]) | MIC Enterococcus faecalis (GC 4553) (Enterococcus sp.; [8]) | MIC Enterococcus faecalis (GC 6189) (Enterococcus sp.; Enterococcus faecalis (GC 6189), 18 hours at 35° C.) | MIC Enterococcus faecium (GC 2243) (Enterococcus sp.; [10]) | MIC Enterococcus faecium (GC 4556) (Enterococcus sp.; [11]) | MIC Enterococcus faecalis (GC 2242) (Enterococcus sp.; [3]) | MIC Enterococcus faecalis (GC 2691) (Enterococcus sp.; [3])
0.5 µg/mL: MIC Streptococcus pneumoniae (GC 1894) (Streptococcus sp.; Streptococcus pneumoniae (GC 1894), 18 hours at 35° C.) | MIC Streptococcus pneumoniae (GC 1894) (Streptococcus sp.; [3])
64 µg/mL: MIC Enterococcus faecalis (GC 3059) (Enterococcus sp.; Enterococcus faecalis (GC 3059), 18 hours at 35° C.) | MIC Enterococcus faecalis (GC 4554) (Enterococcus sp.; [9]) | MIC Enterococcus faecalis (GC 3059) (Enterococcus sp.; [3]) | MIC Escherichia coli (GC 4559) (Escherichia coli; Escherichia coli (GC 4559), 18 hours at 35° C.)

α-O-[(Butylamino)carbonyl]-cyclo[glycyl-β-methylphenylalanyl-O-(4-O-hexopyranosylhexopyranosyl)tyrosyl-3-(2-iminoimidazolidin-4-yl)seryl-3-(3-hexopyranosyl-2-iminoimidazolidin-4-yl)serylseryl] [Example 252]
>64 µg/mL: MIC Streptococcus agalactiae (GC 4564) (Streptococcus sp.; [1]) | MIC Streptococcus pneumoniae (GC 4565) (Streptococcus sp.; [2]) | MIC Streptococcus pyogenes (ID-3187) (Streptococcus sp.; Streptococcus pyogenes (ID-3187), 18 hours at 35° C.) | MIC Enterococcus avium (GC 4558) (Enterococcus sp.; [4]) | MIC Enterococcus faecalis (ATCC 29212) (Enterococcus sp.; [5]) | MIC Enterococcus faecalis (GC 2242) (Enterococcus sp.; [6]) | MIC Enterococcus faecalis (GC 4552) (Enterococcus sp.; [7]) | MIC Enterococcus faecalis (GC 4553) (Enterococcus sp.; [8]) | MIC Enterococcus faecalis (GC 4554) (Enterococcus sp.; [9]) | MIC Enterococcus faecium (GC 2243) (Enterococcus sp.; [10]) | MIC Enterococcus faecium (GC 4556) (Enterococcus sp.; [11]) | MIC Enterococcus faecium (GC 4557) (Enterococcus sp.; [12]) | MIC Coagulase Negative Staphylococcus (GC 4547) (Staphylococcus sp.) | MIC Coagulase Negative Staphylococcus (GC 4548) (Staphylococcus sp.) | MIC Coagulase Negative Staphylococcus (GC 4549) (Staphylococcus sp.) | MIC Coagulase Negative Staphylococcus (GC 4551) (Staphylococcus sp.) | MIC Coagulase Negative Staphylococcus (ID-3941) (Staphylococcus sp.; Coagulase Negative Staphylococcus (ID-3941)) | MIC Staphylococcus aureus (ATCC 29213) (Staphylococcus sp.; [13]) | MIC Staphylococcus aureus (GC 1131) (Staphylococcus sp.; [14]) | MIC Staphylococcus aureus (GC 4541) (Staphylococcus sp.; [15]) | MIC Staphylococcus aureus (GC 4542) (Staphylococcus sp.; [16]) | MIC Staphylococcus aureus (GC 4544) (Staphylococcus sp.; [17]) | MIC Staphylococcus aureus (GC 4545) (Staphylococcus sp.; [18]) | MIC Staphylococcus aureus-SMITH (GC 4543) (Staphylococcus sp.; [19]) | MIC Staphylococcus haemolyticus (GC 4546) (Staphylococcus sp.) | MIC Escherichia coli (ATCC 25922) (Escherichia coli; [20])

CCCCCCCN1CC(C(O)C2NC(=O)C(C(O)C3CNC(=N)N3)NC(=O)C(Cc3ccc(OC4OC(CO)C(OC5OC6COC7(OC6C(O)C5O)C5CC6CC(C5)CC7C6)C(O)C4O)cc3)NC(=O)C(C(C)c3ccccc3)NC(=O)CNC(=O)C(CO)NC2=O)N(C2OC(CO)C(O)C(O)C2O)C1=N (stereo not drawn) [Example 83, Cyclo[glycyl-β-methylphenylalanyl-O-[4-O-[4,6-O-(2-adamantylidene)hexopyranosyl]hexopyranosyl]tyrosyl-3-(2-iminoimidazolidin-4-yl)seryl-3-[1-heptyl-3-hexopyranosyl-2-iminoimidazolidin-4-yl]serylseryl]]
0.25 µg/mL: MIC Streptococcus agalactiae (GC 4564) (Streptococcus sp.; Streptococcus agalactiae (GC 4564), broth dilution, 18 hours at 35° C.) | MIC Streptococcus pneumoniae (GC 4565) (Streptococcus sp.; Streptococcus pneumoniae (GC 4565), broth dilution, 18 hours at 35° C.) | MIC Streptococcus pyogenes (GC 4563) (Streptococcus sp.; Streptococcus pyogenes (GC 4563), broth dilution, 18 hours at 35° C.) | MIC Streptococcus pyogenes (GC 4563) (Streptococcus sp.; strain GC 4563) | MIC Streptococcus agalactiae (GC 4564) (Streptococcus sp.; strain GC 4564) | MIC Streptococcus pneumoniae (GC 4565) (Streptococcus sp.; strain GC 4565)
2 µg/mL: MIC Enterococcus faecium (GC 2243) (Enterococcus sp.; strain GC 2243) | MIC Enterococcus faecalis (GC 4553) (Enterococcus sp.; strain GC 4553) | MIC Enterococcus avium (GC 4558) (Enterococcus sp.; strain GC 4558) | MIC Staphylococcus aureus (ATCC 29213) (Staphylococcus sp.; broth dilution) | MIC Staphylococcus aureus (GC 4541) (Staphylococcus sp.; broth dilution) | MIC Staphylococcus aureus (GC 4545) (Staphylococcus sp.; broth dilution) | MIC Staphylococcus aureus-SMITH (GC 4543) (Staphylococcus sp.; strain SMITH GC 4543, broth dilution) | MIC Escherichia coli (GC 4560) (Escherichia coli; strain GC 4560)
4 µg/mL: MIC Enterococcus faecalis (GC 2242) (Enterococcus sp.; Enterococcus faecalis (GC 2242), broth dilution, 18 hours at 35° C.) | MIC Enterococcus faecalis (GC 2691) (Enterococcus sp.; Enterococcus faecalis (GC 2691), broth dilution, 18 hours at 35° C.) | MIC Enterococcus faecalis (GC 3059) (Enterococcus sp.; Enterococcus faecalis (GC 3059), broth dilution, 18 hours at 35° C.) | MIC Enterococcus faecalis (ATCC 29212) (Enterococcus sp.; strain ATCC 29212) | MIC Enterococcus faecalis (GC 2242) (Enterococcus sp.; strain GC 2242) | MIC Enterococcus faecalis (GC 2691) (Enterococcus sp.; strain GC 2691) | MIC Enterococcus faecalis (GC 3059) (Enterococcus sp.; strain GC 3059) | MIC Enterococcus faecalis (GC 4552) (Enterococcus sp.; strain GC 4552) | MIC Enterococcus faecalis (GC 4554) (Enterococcus sp.; strain GC 4554) | MIC Enterococcus faecium (GC 4556) (Enterococcus sp.; strain GC 4556) | MIC Enterococcus faecalis (GC 6189) (Enterococcus sp.; strain GC 6189) | MIC Staphylococcus aureus (GC 1131) (Staphylococcus sp.; broth dilution) | MIC Staphylococcus aureus (GC 3051) (Staphylococcus sp.; broth dilution) | MIC Staphylococcus aureus (GC 3053) (Staphylococcus sp.; broth dilution) | MIC Staphylococcus aureus (GC 4542) (Staphylococcus sp.; broth dilution) | MIC Staphylococcus aureus (GC 4544) (Staphylococcus sp.; broth dilution)
<0.12 µg/mL: MIC Streptococcus pneumoniae (GC 1894) (Streptococcus sp.; Streptococcus pneumoniae (GC 1894), broth dilution, 18 hours at 35° C.) | MIC Streptococcus pneumoniae (GC 1894) (Streptococcus sp.; strain GC 1894)
32 µg/mL: MIC Escherichia coli (GC 4559) (Escherichia coli; strain GC 4559)
1 µg/mL: MIC Enterococcus faecium (GC 4557) (Enterococcus sp.; strain GC 4557)
0.5 µg/mL: MIC Streptococcus pneumoniae (ATCC 6301) (Streptococcus sp.; Streptococcus pneumoniae (ATCC 6301), broth dilution, 18 hours at 35° C.) | MIC Streptococcus pneumoniae (ATCC 6301) (Streptococcus sp.; strain ATCC 6301)
64 µg/mL: MIC Escherichia coli (ATCC 25922) (Escherichia coli; strain ATCC 25922)
